# Values of other authors as cited in patent US12329899B2, “Dry powder inhaler and methods of use” (Aspeya US Inc., priority 2012, dated 2025).
# Columns and labels:
# [1] = oral solution of 650 mg, four male subjects
# [2] = oral administration, 325 mg
# platelet = settings: 50 mg/day, some patients; the remainder needed over 50 mg/day
# [3] = any dose above 30 mg daily
# [4] = 75 mg/day
compound,measurement,setting,value
"CC(=O)Oc1ccccc1C(=O)O [aspirin, acetylsalicylic acid]",dose that reached the peripheral circulation intact (AUC oral vs intravenous),[1],68%
same,loss or inactivation of the oral dosage due to the first pass effect in the gut and liver,oral administration,approximately ⅔
same,fraction of the dose bioavailable due to the first pass effect,taken orally,about one to two-thirds
same,increase of major gastrointestinal and extracranial bleeds,[2],over 50%
same,platelet inhibition,platelet,satisfactory platelet inhibition
same,vascular events prevented,[3],13%
same,"gastrointestinal side-effects, bleeding episodes",[4],significant excess of bleeding episodes
same,risk of stroke or death,[4]; patients with cerebrovascular ischaemic events,significantly reduces the risk of stroke or death
